Results as given in patent publication US11883383B2, “Pharmaceutically acceptable salts of [3-(4- {2-butyl-1-[4-(4-chloro-phenoxy)-phenyl]-1H-imidazol-4-yl} -phenoxy)-propyl]-diethyl-amine” (vTv Therapeutics LLC, priority 2018, dated 2024).

Assay: Salt/co-crystal screening: 38 acids, eight solvent systems, solids analysed by XRPD
Assay type: physicochemical
Conditions: acid/freebase charge 1:1 unless label says 2:1, stirred at RT, else 5° C. slurry, anti-solvent addition or evaporation (footnote marks)
Description: XRPD analysis was performed with a Panalytical X'Pert^3 Powder XRPD on a Si zero-background holder. The 2θ position was calibrated against Panalytical Si reference standard disc.
A total of 320 salt/co-crystal screening experiments were conducted using 38 acids (two molar ratios for HCl and HBr) and eight solvent systems. Specifically, freebase stock solutions of ˜100 mg/mL were first prepared in each solvent system. For each experiment, 0.2 mL stock solution and the corresponding acids were mixed in a molar charge ratio of 1:1 (acid/freebase, 2:1 for HCl/freebase and HBr/freebase as well), and then stirred at RT. After stirring for 3-5 days, if precipitation was observed, the precipitate was isolated. It no precipitation, the clear solutions were first transferred to slurry at 5° C. to introduce precipitation. Solutions without any precipitation were further subjected to anti-solvent addition (for solvents in column B/D, 0.5 mL hexane was added; for solvents in column G/H, 0.5 mL water was added; for solvent in column F, 0.5 mL n-heptane was added). If still no precipitation, the final clear solutions were transferred to evaporation at RT to induce precipitation. All solids isolated were vacuum dried at RT for 2 hrs before XRPD analysis.

Structure (SMILES)	Solid obtained in salt screening (XRPD), solvent D Acetone/Hexane (1:2, v/v)	Solid obtained in salt screening (XRPD), solvent H Dioxane/H2O (9:1, v/v)	Solid obtained in salt screening (XRPD), solvent A Ethanol	Solid obtained in salt screening (XRPD), solvent B Ethyl acetate/Hexane (1:2, v/v)	Solid obtained in salt screening (XRPD), solvent G Methanol/H2O (19:1, v/v)	Solid obtained in salt screening (XRPD), solvent F Methyl tertbutyl ether	Solid obtained in salt screening (XRPD), solvent C THF	Solid obtained in salt screening (XRPD), solvent E Toluene
O=C(O)c1ccc2ccccc2c1O [1-hydroxy-2-naphthoic acid]	gel	amorphous*	amorphous*	gel*	amorphous*	gel	gel	gel
Nc1ccc(C(=O)O)c(O)c1 [4-Aminosalicylic acid]	gel	gel	gel*				gel	gel
O=C(O)CCCCC(=O)O [Adipic acid]	FB Type B*	amorphous*	gel*	amorphous*	amorphous*	amorphous*	gel*	gel*
O=C(O)c1ccccc1 [Benzoic acid]	gel*	amorphous*	gel*	gel*	amorphous*	amorphous*	gel*	gel*
O=C(O)CC(O)(CC(=O)O)C(=O)O [Citric acid]		amorphous*	gel*		amorphous*	amorphous	amorphous^#	amorphous
O=C(O)/C=C/C(=O)O [Fumaric acid]		amorphous*	gel*		amorphous*		gel*	
O=C(O)c1cc(O)ccc1O [Gentisic acid]			gel*				gel*	
O=C(O)[C@H](O)[C@@H](O)[C@H](O)[C@H](O)CO [Gluconic acid]	amorphous^&	amorphous*	amorphous*	gel*	amorphous*	amorphous	amorphous*	gel
N[C@@H](CCC(=O)O)C(=O)O [Glutamic acid]		glutamic acid	glutamic acid			glutamic acid		
O=C(O)CCCC(=O)O [Glutaric acid]	amorphous*	amorphous*	gel*	amorphous*	amorphous*	amorphous^&	gel*	gel*
O=S(=O)(O)O [H2SO4]	gel	gel*	gel*	gel	gel*		gel	amorphous*
Br.CCCCc1nc(-c2ccc(OCCCN(CC)CC)cc2)cn1-c1ccc(Oc2ccc(Cl)cc2)cc1 [HBr (1:1)]		gel*						
CCCCCC(=O)O [Hexanoic acid]	gel*	FB Type A*	gel	gel*	amorphous*	FB Type B^&	gel	gel
O=C(O)CNC(=O)c1ccccc1 [Hippuric acid]	amorphous*	amorphous*	gel*		amorphous*		gel*	gel*
C[C@H](O)C(=O)O [L-lactic acid]	gel	amorphous*	amorphous*	gel*	amorphous*	gel	gel	gel*
O=C(O)C[C@H](O)C(=O)O [L-malic acid]	gel	amorphous*	amorphous*		amorphous*		gel	gel
O=C(O)C(O)C(O)C(=O)O [L-tartartic acid]					amorphous*			
O=C(O)/C=C\C(=O)O [Maleic acid]		amorphous*	gel*		amorphous*		gel*	gel*
O=C(O)CC(=O)O [Malonic acid]	amorphous*	amorphous*	gel*	amorphous*	amorphous*	gel*	gel*	gel*
